The values that follow are results of earlier work, collected in patent US7438896B2, “Method of skin care using lipoic and ascorbic acids” (N.V. Perricone LLC, priority 1995, dated 2008).

The test system of one data set is rat edema. The settings on record: compared with lipoic alone or vitamin E alone.
The subject of a further data set is porcine skin. To be noted: compositions without serine.
For data set [1], the system named is cultured human keratinocytes. The settings on record: compositions without serine.

As to `O=C(O)CCCC[C@@H]1CCSS1` (single isomer, unassigned) [R-enantiomer of lipoic acid], the “anti-inflammatory effect in rat edema model” value in the data set with rat edema was “superior to lipoic alone or to vitamin E alone”. Consider `O=C(O)CCCC[C@H]1CCSS1` (single isomer, unassigned) [S-enantiomer], for which the “effect on the action of insulin” value in the data set with insulin is given as “decreased the effect of insulin”. Turning to `O=C(O)CCCCC1CCSS1` (stereo not shown) [lipoic acid, 1,2-dithiolane-3-pentanoic acid], the “effect on ceramide production” value (with porcine skin; in data set [1]) was “had no effect” each time.
